Columns and labels:
TBI = conditions: University of Washington trial initiated in 1999, preliminary data; cited from earlier work
stroke = conditions: intravenous, up to 12 hours following stroke onset, 2589 patients (Muir et al., 2004); cited from earlier work
brain injury = assay: Loss of cognitive functions (ability to learn a new spatial task) following brain injury; format: in vivo, animals; conditions: single agent alone
Excerpt: The discovery of a synergistic effect between PEG, a biomembrane sealing agent, and magnesium is highly significant as it can lead to the development of therapeutic formulations with improved efficacy for the treatment of neuronal trauma, inflammatory and painful conditions.

pain = conditions: Crosby et al., 2000; cited from earlier work

Row | Structure (SMILES) | outcome of magnesium sulfate therapy in TBI patients (TBI) | clinical improvement after stroke (stroke) | effect on the loss of cognitive functions following brain injury (brain injury) | duration of analgesic effects (pain) [h]
1 | O=S(=O)([O-])[O-].[Mg+2] [magnesium sulfate] | negative | no significant improvement |  | 
2 | [Mg+2] [magnesium] |  |  | no effect | ≤ 4
